Measured values from patent US7951548B2, “IL-13 production inhibitor” (Takeda Pharmaceutical Company Limited, priority 2005, dated 2011).

Legend:
Type in all cases: cell-based
GPR34 [1] = target: T1, GPR34 (Homo sapiens, UniProt Q9UPC5); test: Intracellular cAMP production inhibitory activity on GPR34-expressed CHO cells (forskolin stimulated); settings: phosphatidylserine in a higher concentration
T1 construct: expressed in transfected cells
Method: The GPR34-expressed CHO cells prepared in (1-2) described above and selected in (1-3) described above were plated on a 24-well plate in 6×10^4 cells/well followed by incubation for 48 hours. The cells were washed with αMEM medium (pH 7.5) containing 0.2 mM 3-isobutylmethylxanthine, 0.05% BSA and 20 mM HEPES (hereinafter αMEM medium (pH 7.5) containing 0.2 mM 3-isobutylmethylxanthine, 0.05% BSA and 20 mM HEPES is referred to as the reaction buffer). Thereafter, 0.5 mL of the reaction buffer was added and the mixture was kept warm for 30 minutes in an incubator. The reaction buffer was removed and 0.25 mL of fresh reaction buffer was replenished to the cells. Then, 0.25 mL of the reaction buffer containing a sample and 2 μM forskolin was added to the cells, followed by reacting at 37° C. for 30 minutes. The reaction solution was removed and 0.5 mL of the cell lysis solution attached to cAMP EIA kit (Applied Biosystems) to extract cAMP in the cells. The cAMP level in the extract was quantified using the same kit. Based on this measurement data, the cAMP production inhibitory activity was calculated based on the equation shown below and expressed in terms of percentage to the control group. […]

[2] = test system: rat primary culture microglial cells (PMGC); test: Expression of cytokine genes in activated PMGC (TaqMan PCR); settings: lysoPS 5 μM, LPS 1 μg/ml, IFN-α 1 ng/ml
Method: In order to examine the action of lysoPS on the activation of microglia, actions induced by the addition of lysoPS in PMGC activated by LPS stimulation was examined in the presence of IFN-α. PMGC, which was prepared from the brain of rat of one day old on the preceding day, was plated on a 24-well plate (Falcon 353047) at 50000 cells/well, and IFN-α (1 ng/ml, Biovision) was added 6 hours after. On the following day, lysoPS (5 μM) was added upon stimulation by LPS (1 μg/ml), and comparison was made between the presence and absence of lysoPS if cytokine production was affected. RNA was prepared as in the procedure described in EXAMPLE 4 for 2 and 8 hours after addition or without addition of LPS and lysoPS (5 μM). The sequencing information of the primers, probe and standard used for TaqMan are as described above. The cytokine production was compared by TaqMan PCR in terms of changes in expression levels of cytokine genes.

GPR34 [3] = target: T1, GPR34; test: MAPK activation: phosphorylation of ERK1/2 in human GPR34-expressed CHO cells (western blotting); settings: human GPR34-expressed CHO cells
Method: The cells were prepared as described below. Human GPR34-expressed CHO cells were scraped off with 0.05% trypsin-EDTA (GIBCO) and suspended in a medium (MEM-α (GIBCO), supplemented with 10% FBS (GIBCO) and penicillin/streptomycin (BIOWHITTAKER)). After centrifugation, the cells precipitated were suspended in the medium in 2×10^5 cells/ml and a 1 mL aliquot was plated on a 35 mm cell culture dish. After incubation overnight in a CO2 incubator, the medium was aspirated and washed in PBS. Then 1 mL of serum-free medium (MEM-α (GIBCO), supplemented with penicillin/streptomycin (BIOWHITTAKER)) and incubation was performed in a CO2 incubator. Pertussis toxin (hereinafter PTX) was added in a final concentration of 0.1 μg/mL 20 hours before the assay.
The cells were activated as follows. The medium was aspirated and washed in PBS. Thereafter, 500 μL of assay buffer (HBSS (GIBCO), 10 mM HEPES (Dojin Chemical Laboratory)) was added to perform preincubation for 15 minutes at 37° C. The lysoPS solution and […] of PECGF ([…] cell growth factor) solution as a positive control were added. After the mixture was incubated at 37° C., the reaction was terminated by quenching. The assay buffer was aspirated and washed in PBS. Then, 1×SDS sample buffer/DTT was added to the cells to recover the cells. After ultrasonication for 15 seconds, heating at 95° C. for 5 minutes was followed by quenching.
Detection by SDS-PAGE and western blotting were performed as follows. After separation using 10% Bis-Tris gel (Invitrogen), the gel was transferred to Immuno-Blot PVDF Membrane (Bio-Rad). The membrane was blocked with Block Ace (Dai-Nippon Pharmaceutical) and incubated at room temperature for an hour with a primary antibody (Phospho-p42/p44 MAP Kinase (Thr202/Thr204) Antibody (CST) or p42/p44 MAP Kinase Antibody (CST)) and further incubated at room temperature for an hour using a secondary antibody (Anti-rabbit IgG (CST)). The membrane after the antibody reaction was visualized by chemiluminescence using ECL PLUS (Amersham Biosciences). […]

[4] = test system: rat peritoneal mast cells; test: Degranulation of rat peritoneal mast cells (β-hexosaminidase activity in supernatant); settings: for degranulation: 20 minutes
Method: The rat peritoneal mast cells (RPMC) obtained by the procedure described in EXAMPLE 1 were subjected to passive sensitization for 30 minutes on ice using DNP IgE (Yamasa, 10 μg/ml), washed and plated on a 96-well plate in a final cell concentration of 100,000 cells/well in the reaction solution. RPMC was stimulated by lysoPS and DNP-BSA (Carbiochem) and the plate was centrifuged 20 minutes after. The β-hexosaminidase activity in the supernatant of the reaction solution was assayed using the degradation activity of 4-methylumbeliferryl-2-acetamido-2-deoxy-β-D-glucopyranoside (Wako Pure Chemicals) as an indicator.

[5] = test system: other receptor expression cells; test: cAMP production inhibitory activity on other receptor expression cells

T1 sequence (Q9UPC5 whole entry): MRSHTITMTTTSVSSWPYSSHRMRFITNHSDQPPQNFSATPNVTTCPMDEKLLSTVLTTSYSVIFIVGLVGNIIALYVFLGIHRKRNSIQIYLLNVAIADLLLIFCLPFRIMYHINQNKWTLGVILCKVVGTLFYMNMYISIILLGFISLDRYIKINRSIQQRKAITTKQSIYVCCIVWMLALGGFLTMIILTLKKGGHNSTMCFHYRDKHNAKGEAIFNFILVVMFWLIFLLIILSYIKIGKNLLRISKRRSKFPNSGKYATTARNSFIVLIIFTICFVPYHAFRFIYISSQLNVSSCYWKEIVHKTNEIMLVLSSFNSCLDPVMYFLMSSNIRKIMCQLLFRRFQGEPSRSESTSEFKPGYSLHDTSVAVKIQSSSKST

lysophosphatidylserine [lysoPS]
cAMP production inhibitory activity (GPR34 [1]): marked activities
expression of inflammatory cytokine IL-6 ([2]; 2 hours after the addition): tendency to suppress the expression
expression of inflammatory cytokine TNF-α ([2]; 2 hours after the addition): tendency to suppress the expression
expression of anti-inflammatory cytokine IL-10 ([2]; 8 hours after): tendency to increase its expression
phosphorylation of ERK1/2 30 minutes after the stimulation (GPR34 [3]): the phosphorylation was noted
time of maximum response of ERK1/2 phosphorylation after the stimulation (GPR34 [3]): about 5 minutes
degranulation ([4]; 100 ng/ml DNP-BSA with 0.1 μM lysoPS added simultaneously): 8.4%
degranulation ([4]; 100 ng/ml DNP-BSA with 0.3 μM lysoPS added simultaneously): 14.7%
degranulation ([4]; 100 ng/ml DNP-BSA with 1 μM lysoPS added simultaneously): 26.0%
degranulation ([4]; 100 ng/ml DNP-BSA with 3 μM lysoPS added simultaneously): 36.7%
degranulation ([4]; 100 ng/ml DNP-BSA with 10 μM lysoPS added simultaneously): 45.2%
degranulation (in words) ([4]; 0.1 to 10 μM lysoPS with 100 ng/ml DNP-BSA): increased concentration-dependently
cAMP production inhibitory action on other receptor expression cells [5]: not noted
